What was measured:
[1] = biological target: STK39/STLK3 (Homo sapiens, UniProt Q9UEW8); conditions: 1 μM; Run 1, Run 2
[2] = biological target: PAK2 (Homo sapiens, UniProt Q13177); conditions: 1 μM; Run 1, Run 2
[3] = biological target: T1, HGK/MAP4K4 (Homo sapiens, UniProt O95819); experiment: 375-member kinase panel; assay type: biochemical; conditions: Run 1, Run 2; for % enzyme activity: 1 μM; for remaining activity at 1 µM: read-out: % enzyme activity, 1 μM
T1 construct: purchased Reaction Biology Corporation

[4] = biological target: LYN B (Homo sapiens, UniProt P07948); conditions: 1 μM; Run 1, Run 2
[5] = biological target: STK21/CIT (Homo sapiens, UniProt O14578); experiment: biochemical; conditions: read-out: % enzyme activity, 1 μM; Run 1, Run 2
[6] = biological target: CK1a1 (Homo sapiens, UniProt P48729); conditions: 1 μM; Run 1, Run 2
[7] = biological target: T2, PRKX (Homo sapiens, UniProt P51817); experiment: biochemical; conditions: read-out: % enzyme activity, 1 μM; Run 1, Run 2
T2 sequence (P51817 1-358): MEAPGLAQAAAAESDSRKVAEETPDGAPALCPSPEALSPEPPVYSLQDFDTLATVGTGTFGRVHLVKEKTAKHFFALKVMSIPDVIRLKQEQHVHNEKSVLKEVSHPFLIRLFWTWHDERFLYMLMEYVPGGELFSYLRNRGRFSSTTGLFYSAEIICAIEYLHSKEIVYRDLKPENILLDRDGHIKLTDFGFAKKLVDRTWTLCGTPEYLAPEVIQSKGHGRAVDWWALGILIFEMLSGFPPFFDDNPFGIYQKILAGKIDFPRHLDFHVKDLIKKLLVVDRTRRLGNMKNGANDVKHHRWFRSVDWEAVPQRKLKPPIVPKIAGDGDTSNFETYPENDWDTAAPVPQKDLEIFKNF

[8] = biological target: T3, GCK/MAP4K2 (Homo sapiens, UniProt Q12851); experiment: biochemical; conditions: read-out: % enzyme activity, 1 μM; Run 1, Run 2
T3 sequence (Q12851 1-820): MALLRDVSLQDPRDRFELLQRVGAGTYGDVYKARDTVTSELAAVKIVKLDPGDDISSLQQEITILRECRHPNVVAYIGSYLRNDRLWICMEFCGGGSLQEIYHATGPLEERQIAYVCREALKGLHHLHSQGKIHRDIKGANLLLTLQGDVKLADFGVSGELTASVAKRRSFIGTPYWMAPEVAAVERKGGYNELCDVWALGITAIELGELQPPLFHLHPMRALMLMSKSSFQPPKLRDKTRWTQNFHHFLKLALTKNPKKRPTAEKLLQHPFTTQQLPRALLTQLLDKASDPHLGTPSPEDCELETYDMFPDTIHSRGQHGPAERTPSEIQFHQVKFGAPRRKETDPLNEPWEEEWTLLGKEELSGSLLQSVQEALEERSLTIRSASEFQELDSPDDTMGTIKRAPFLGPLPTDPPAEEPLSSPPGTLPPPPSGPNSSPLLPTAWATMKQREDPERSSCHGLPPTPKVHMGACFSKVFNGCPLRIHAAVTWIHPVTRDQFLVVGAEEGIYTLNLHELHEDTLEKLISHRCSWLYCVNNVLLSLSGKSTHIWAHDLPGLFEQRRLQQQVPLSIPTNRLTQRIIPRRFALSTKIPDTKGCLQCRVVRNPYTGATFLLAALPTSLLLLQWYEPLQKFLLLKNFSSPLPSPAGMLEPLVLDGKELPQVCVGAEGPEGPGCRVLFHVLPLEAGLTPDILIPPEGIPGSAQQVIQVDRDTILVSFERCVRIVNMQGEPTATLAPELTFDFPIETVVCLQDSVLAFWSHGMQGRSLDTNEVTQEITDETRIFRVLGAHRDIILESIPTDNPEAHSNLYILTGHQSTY

[9] = biological target: T4, TAOK2/TAO1 (Homo sapiens, UniProt Q9UL54); conditions: 1 μM; Run 1, Run 2
T4 sequence (Q9UL54 1-1235): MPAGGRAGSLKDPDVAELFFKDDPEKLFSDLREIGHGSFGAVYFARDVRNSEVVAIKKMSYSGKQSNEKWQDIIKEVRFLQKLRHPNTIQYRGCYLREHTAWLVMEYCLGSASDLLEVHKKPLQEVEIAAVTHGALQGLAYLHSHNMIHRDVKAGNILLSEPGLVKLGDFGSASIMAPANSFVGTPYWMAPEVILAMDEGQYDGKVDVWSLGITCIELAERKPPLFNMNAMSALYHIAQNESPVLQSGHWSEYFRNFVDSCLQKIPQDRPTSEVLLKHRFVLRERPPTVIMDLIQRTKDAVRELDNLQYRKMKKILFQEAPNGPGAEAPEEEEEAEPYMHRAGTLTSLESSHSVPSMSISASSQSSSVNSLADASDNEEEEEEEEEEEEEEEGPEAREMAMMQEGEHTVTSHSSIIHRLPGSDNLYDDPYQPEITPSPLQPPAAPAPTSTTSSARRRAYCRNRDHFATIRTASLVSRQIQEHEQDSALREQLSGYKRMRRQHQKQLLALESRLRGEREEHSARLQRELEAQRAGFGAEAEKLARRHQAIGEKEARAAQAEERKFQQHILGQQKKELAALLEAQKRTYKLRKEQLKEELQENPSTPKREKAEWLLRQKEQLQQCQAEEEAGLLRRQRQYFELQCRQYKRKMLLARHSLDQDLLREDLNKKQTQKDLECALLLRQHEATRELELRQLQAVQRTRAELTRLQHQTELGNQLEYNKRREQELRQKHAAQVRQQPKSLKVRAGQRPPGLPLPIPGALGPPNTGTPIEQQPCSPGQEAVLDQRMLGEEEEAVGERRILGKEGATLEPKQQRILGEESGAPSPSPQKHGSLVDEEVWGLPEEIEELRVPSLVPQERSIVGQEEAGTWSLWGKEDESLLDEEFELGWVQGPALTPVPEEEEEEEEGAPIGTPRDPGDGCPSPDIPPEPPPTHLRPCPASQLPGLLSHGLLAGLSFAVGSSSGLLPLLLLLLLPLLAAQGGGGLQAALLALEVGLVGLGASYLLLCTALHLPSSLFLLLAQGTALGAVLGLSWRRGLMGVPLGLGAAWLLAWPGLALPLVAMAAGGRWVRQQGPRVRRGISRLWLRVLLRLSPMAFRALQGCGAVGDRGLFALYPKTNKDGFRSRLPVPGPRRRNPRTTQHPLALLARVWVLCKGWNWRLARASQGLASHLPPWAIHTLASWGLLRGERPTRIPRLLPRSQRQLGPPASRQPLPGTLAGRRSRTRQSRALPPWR

T1 sequence (O95819 whole entry): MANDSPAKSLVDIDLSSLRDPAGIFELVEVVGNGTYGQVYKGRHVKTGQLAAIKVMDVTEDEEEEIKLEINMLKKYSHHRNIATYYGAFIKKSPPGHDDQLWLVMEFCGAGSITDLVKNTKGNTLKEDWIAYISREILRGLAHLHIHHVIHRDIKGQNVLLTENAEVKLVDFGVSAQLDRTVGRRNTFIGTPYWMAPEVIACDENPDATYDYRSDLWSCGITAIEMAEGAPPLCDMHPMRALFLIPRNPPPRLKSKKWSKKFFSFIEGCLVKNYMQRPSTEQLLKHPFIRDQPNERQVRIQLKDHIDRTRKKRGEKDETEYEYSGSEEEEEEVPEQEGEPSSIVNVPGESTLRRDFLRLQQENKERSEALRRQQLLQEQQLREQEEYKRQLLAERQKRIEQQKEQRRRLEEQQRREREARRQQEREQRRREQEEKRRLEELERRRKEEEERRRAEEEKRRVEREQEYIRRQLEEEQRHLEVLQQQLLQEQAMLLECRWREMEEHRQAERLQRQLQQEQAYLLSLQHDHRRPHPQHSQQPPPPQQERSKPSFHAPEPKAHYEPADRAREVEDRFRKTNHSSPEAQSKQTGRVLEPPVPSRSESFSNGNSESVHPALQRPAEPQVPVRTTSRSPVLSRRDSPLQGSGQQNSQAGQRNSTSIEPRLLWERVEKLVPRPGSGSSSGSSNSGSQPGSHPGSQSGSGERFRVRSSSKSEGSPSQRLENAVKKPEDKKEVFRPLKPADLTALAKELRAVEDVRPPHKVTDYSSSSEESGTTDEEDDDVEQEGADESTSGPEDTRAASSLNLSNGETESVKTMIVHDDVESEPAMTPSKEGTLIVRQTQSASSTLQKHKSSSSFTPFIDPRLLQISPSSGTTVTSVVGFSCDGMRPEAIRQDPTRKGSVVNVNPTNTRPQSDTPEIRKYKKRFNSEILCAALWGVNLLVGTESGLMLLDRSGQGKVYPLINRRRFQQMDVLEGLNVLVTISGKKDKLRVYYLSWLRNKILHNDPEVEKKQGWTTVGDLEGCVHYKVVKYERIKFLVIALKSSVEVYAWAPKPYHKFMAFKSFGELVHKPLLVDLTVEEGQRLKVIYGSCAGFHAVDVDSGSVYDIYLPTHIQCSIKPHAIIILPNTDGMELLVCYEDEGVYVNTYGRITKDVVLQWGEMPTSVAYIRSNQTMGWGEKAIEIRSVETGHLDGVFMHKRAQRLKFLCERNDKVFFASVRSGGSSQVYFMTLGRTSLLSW
CK1a1, sequence (P48729 whole entry): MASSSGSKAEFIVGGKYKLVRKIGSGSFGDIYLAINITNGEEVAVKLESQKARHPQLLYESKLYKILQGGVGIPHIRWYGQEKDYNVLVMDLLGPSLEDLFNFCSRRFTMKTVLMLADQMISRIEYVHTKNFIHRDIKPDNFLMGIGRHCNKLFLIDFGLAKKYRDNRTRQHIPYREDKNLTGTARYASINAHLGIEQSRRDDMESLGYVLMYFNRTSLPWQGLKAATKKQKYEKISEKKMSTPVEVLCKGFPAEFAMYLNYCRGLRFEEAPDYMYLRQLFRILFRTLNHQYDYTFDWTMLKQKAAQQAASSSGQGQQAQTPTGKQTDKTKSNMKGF
STK21/CIT, sequence (O14578 whole entry): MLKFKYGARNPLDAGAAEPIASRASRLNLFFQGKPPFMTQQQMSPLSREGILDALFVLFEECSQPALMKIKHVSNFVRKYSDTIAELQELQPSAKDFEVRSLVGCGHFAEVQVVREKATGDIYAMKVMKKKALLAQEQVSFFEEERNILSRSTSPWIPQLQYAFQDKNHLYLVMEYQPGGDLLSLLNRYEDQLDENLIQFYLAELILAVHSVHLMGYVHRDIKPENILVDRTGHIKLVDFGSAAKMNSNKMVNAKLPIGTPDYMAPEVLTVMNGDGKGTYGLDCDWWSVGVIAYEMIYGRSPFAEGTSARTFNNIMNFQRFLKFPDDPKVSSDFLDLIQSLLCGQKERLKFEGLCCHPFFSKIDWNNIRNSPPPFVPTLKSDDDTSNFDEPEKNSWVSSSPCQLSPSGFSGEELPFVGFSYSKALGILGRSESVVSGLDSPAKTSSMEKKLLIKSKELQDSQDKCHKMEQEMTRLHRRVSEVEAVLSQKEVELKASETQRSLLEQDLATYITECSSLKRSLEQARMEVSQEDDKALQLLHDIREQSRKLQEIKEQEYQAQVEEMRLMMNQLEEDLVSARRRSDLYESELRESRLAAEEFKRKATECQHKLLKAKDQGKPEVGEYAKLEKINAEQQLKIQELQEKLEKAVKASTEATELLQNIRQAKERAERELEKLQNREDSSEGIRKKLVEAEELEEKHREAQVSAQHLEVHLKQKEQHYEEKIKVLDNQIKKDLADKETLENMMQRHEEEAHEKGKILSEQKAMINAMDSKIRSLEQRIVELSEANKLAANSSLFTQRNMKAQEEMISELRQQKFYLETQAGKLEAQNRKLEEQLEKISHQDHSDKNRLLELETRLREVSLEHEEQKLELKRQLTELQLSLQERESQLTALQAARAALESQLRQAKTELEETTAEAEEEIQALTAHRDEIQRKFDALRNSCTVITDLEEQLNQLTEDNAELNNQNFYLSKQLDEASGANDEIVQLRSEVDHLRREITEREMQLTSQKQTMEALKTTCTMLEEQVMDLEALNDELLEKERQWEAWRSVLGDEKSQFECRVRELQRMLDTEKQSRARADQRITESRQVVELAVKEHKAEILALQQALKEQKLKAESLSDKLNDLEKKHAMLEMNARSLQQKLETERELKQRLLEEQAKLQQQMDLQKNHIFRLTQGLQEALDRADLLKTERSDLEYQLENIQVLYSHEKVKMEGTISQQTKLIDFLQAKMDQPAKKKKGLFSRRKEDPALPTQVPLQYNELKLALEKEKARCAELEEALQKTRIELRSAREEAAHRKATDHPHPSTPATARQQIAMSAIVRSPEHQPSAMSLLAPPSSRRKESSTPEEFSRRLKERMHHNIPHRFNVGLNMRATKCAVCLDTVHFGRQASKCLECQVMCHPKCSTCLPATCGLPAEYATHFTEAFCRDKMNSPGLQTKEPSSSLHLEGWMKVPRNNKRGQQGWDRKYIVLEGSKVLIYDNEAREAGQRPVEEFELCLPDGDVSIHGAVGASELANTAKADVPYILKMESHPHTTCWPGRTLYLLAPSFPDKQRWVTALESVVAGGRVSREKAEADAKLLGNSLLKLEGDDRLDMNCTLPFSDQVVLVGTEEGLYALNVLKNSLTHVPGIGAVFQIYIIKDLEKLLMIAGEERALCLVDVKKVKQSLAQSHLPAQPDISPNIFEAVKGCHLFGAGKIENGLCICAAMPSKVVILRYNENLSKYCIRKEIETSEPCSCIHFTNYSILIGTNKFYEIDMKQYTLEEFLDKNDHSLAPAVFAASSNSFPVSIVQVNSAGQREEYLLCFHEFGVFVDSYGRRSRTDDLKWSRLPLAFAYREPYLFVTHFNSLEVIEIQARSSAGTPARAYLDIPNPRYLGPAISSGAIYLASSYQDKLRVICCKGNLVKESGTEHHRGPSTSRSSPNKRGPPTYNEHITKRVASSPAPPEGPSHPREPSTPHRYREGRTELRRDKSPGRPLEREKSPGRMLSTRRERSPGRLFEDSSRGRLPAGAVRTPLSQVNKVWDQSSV
LYN B, sequence (P07948 1-491 isoform P07948-2): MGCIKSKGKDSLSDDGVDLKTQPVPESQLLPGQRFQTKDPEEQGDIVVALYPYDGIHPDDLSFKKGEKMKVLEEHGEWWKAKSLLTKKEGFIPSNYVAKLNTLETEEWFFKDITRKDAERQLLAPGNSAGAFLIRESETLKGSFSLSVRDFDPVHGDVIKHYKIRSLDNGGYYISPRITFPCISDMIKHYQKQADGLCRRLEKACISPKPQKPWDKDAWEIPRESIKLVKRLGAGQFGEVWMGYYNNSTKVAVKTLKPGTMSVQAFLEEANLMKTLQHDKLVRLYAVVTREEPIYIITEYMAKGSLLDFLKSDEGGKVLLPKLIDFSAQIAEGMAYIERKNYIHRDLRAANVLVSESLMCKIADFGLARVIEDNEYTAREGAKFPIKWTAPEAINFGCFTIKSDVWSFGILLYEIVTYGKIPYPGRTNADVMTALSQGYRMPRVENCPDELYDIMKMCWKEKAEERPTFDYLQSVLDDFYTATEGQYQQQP
PAK2, sequence (Q13177 whole entry): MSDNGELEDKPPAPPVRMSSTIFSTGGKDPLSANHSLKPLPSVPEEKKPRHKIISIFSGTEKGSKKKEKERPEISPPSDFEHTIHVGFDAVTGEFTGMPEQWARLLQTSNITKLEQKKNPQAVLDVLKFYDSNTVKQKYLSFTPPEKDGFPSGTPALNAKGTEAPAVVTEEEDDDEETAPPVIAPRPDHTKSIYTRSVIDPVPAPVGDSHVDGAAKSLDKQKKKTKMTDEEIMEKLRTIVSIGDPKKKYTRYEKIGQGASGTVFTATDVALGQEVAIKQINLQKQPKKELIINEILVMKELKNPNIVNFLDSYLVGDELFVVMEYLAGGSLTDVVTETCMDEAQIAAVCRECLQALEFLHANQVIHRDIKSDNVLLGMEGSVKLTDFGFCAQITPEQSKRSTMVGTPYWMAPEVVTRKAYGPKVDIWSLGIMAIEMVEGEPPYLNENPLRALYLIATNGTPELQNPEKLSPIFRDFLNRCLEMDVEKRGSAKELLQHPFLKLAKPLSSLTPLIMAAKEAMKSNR

Structure (SMILES)	% enzyme activity [1]	% enzyme activity [2]	% enzyme activity [3]	remaining activity at 1 µM [3]	% enzyme activity [4]	remaining activity at 1 µM [5]	% enzyme activity [6]	remaining activity at 1 µM [7]	remaining activity at 1 µM [8]	% enzyme activity [9]
COc1cc(-c2cncc(-c3ccc(N4CCN(C)CC4)cc3)c2C)cc(F)c1C(N)=O [Compound 26a, 2-Fluoro-6-methoxy-4-(4-methyl-5-(4-(4-methylpiperazin-1-yl)phenyl)pyridin-3-yl)benzamide]	88.76%	100.35%	20.97%	22%	96.56%	88.8%	91.31%	99.9%	61.8%	87.58%
COc1cc(-c2cncc(-c3ccc(N4C[C@@H](C)N(C)[C@@H](C)C4)cc3)c2C)cc(F)c1C(N)=O [Compound 26c, 2-Fluoro-6-methoxy-4-(4-methyl-5-(4-((3R,5S)-3,4,5-trimethylpiperazin-1-yl)phenyl)pyridin-3-yl)benzamide]	93.62%	103.95%	28.35%	30.6%	97.80%	89.1%	99.44%	91.3%	75.4%	99.37%

Reference: article PMC8213057, “Targeting ALK2: An Open Science Approach to Developing Therapeutics for the Treatment of Diffuse Intrinsic Pontine Glioma” (Journal of Medicinal Chemistry, 2020)
